CC(C)(c1ccc(O)cc1)c1ccc(O)cc1
solubility (mole fraction)
Details | 273.15 K | 278.15 K | 283.15 K | 288.15 K | 293.15 K | 298.15 K | 303.15 K | 308.15 K | 313.15 K
in 1,4-dioxane | – | – | – | 0.205 | 0.224 | 0.245 | 0.264 | 0.285 | 0.307
in DMF | 0.298 | 0.308 | 0.324 | 0.342 | 0.361 | 0.383 | 0.409 | 0.43 | 0.452
in acetone | 0.293 | 0.301 | 0.311 | 0.321 | – | – | – | – | –
in acetonitrile | 0.135 | 0.141 | 0.15 | 0.16 | 0.169 | 0.176 | 0.185 | 0.196 | 0.207
in cyclohexanone | 0.0936 | 0.111 | 0.126 | 0.142 | 0.158 | 0.176 | 0.195 | 0.215 | 0.235
in ethanol | 0.21 | 0.215 | 0.221 | 0.227 | 0.233 | 0.24 | 0.246 | 0.253 | 0.26
in ethyl acetate | 0.235 | 0.237 | 0.24 | 0.243 | 0.246 | 0.251 | 0.255 | 0.26 | 0.265
in formamide | – | 0.14 | 0.151 | 0.164 | 0.178 | 0.193 | – | 0.231 | 0.252
in isopropanol | 0.0503 | 0.0603 | 0.0719 | 0.0858 | 0.097 | 0.111 | 0.123 | 0.139 | 0.153
in methanol | 0.187 | 0.19 | 0.194 | 0.198 | 0.202 | 0.207 | 0.212 | 0.217 | 0.223
in methyl acetate | 0.236 | 0.237 | 0.239 | 0.241 | 0.246 | 0.249 | 0.253 | 0.257 | 0.261
in n-butanol | 0.0748 | 0.0833 | 0.0942 | 0.108 | 0.12 | 0.136 | 0.149 | 0.163 | 0.181
in n-propanol | 0.176 | 0.18 | 0.188 | 0.195 | 0.2 | 0.207 | 0.214 | 0.22 | 0.225
in sec-butanol | 0.0342 | 0.0397 | 0.0472 | 0.0566 | 0.0654 | 0.0735 | 0.083 | 0.093 | 0.104
